Laboratory results published in US5449694A, “(-)-ritodrine, therapeutic compositions and use, and method of preparation” (priority 1992, dated 1995).
Where two headings read alike, the source gives them in different places.

How the values were obtained:
uterus in situ = assay: Effect on uterine movement in situ (oxytocin-facilitated, pregnant rat); type: in vivo, pregnant Wistar rat; details: for ED50 / minimal effective dose: Rattus norvegicus, iv; for ED50: read-out: concentration (dose) required for suppressing 50% of the increase of the uterus due to oxytocin; for minimal effective dose: read-out: dose at which suppressing effect on uterine movement was exhibited; for concentration dependence of suppressing effect: i.v., 0.05-15 mg/kg
Description: Effect on Uterine Movement in Situ
After a pregnant Wistar rat was anesthesized with urethane-α-chloralose, the abdominal part was incised along the median line and a polyethylene cylinder was inserted. The center of the uterine horn was suspended with a suture, and the uterine movement was isotonically recorded via an isotonic transducer. When the spontaneous movement of the uterus was stabilized, 50 mU/kg/min of oxytocin was infused intravenously to facilitate the movement. When the response due to oxytocin became constant, either (±)-ritodrine hydrochloride, (+)-ritodrine hydrochloride or (-)-ritodrine hydrochloride (0.05-15 mg/kg) was administered intravenously to observe the variation of tension and frequency and amplitude of the spontaneous movement. The suppressing effect of the uterine movement on respective parameters was expressed as the intensity of the activity by either (±)-ritodrine hydrochloride, (+)-ritodrine hydrochloride or (-)-ritodrine hydrochloride based on the state facilitated by oxytocin as 100%. The variations of the tension, and the frequency and amplitude of the spontaneous movement are shown in Tables 2, 3 and 4, respectively. […] In either parameter, the (-)-isomer was effective in a concentration of 1/2-1/3 to the (±)-isomer. The (+)-isomer was effective at a dose of 1.5 mg/kg or more.

[1] = tested on: guinea pig tracheal smooth muscle; assay: Effect on an isolated preparation of tracheal muscle in guinea pig (relaxation); parameters: species or system Hartley guinea pig; details: for relaxation response of tracheal muscle: 10^-8 -10-4M; for IC50: Cavia porcellus, read-out: concentration required for relaxing 50% of the maximum relaxation effect (IC50); for sequence of intensities of relaxation activity: decreasing sequence
Protocol: (§1) Effect on an Isolated Preparation of Tracheal Muscle in Guinea Pig
After Hartley guinea pigs having body weight of 430-510 g, were anesthesized with ether, tracheae were excised to make chain preparation according to the method of Akcasu (A. Akcasu, Arch. Int. Pharmacodyn., 1959, 122, 201). The preparations were suspended in a Magnus tube filled with an air-saturated nutrient solution (Tyrode solution) maintained at 37°±1° C. Contractile tension was measured via an isotonic transducer and recorded on a polygraph. Either (±)-ritodrine hydrochloride, (+)-ritodrine hydrochloride or (-)-ritodrine hydrochloride was cumulatively applied so as the concentration in the Magnus tube to be 10^-8 -10-4M.

isolated rat myometrium = assay: Effect on an isolated rat myometrium preparation (oxytocin-induced contraction); parameters: species or system female virgin Wistar rat; details: for concentration dependence of relaxation activity: 10^-7 -10^-4 M; for IC50: read-out: concentration required for suppressing 50% of the contraction of an isolated myometrium caused by oxytocin (IC50); for minimal effective concentration: read-out: concentration at which relaxation activity was exhibited
Protocol: (§2) Effect on an Isolated Rat Myometrium Preparation
(§3) After blowing the cranium of a female virgin Wistar rat, uterus was extracted. The preparation was suspended in a Magnus tube filled with a nutrient solution (Tyrode solution) which was maintained at 36°±1° C. and saturated with a mixed gas of 95% O2 and 5% CO2. Contractile tension was measured via an isotonic transducer and recorded on a polygraph. When the spotaneous movement was stabilized, oxytocin (2×10^-2 U/ml) was administered and either (±)-ritodrine hydrochloride, (+)-ritodrine hydrochloride or (-)-ritodrine hydrochloride (10^-7 -10^-4 M) was applied to the Magnus tube to observe the variation of the contractile tension. Suppresive effect on the oxytocin-contracted uterus was expressed by the intensity of activity of (±)-ritodrine hydrochloride, (+)-ritodrine hydrochloride or (-)-ritodrine hydrochloride based on 100% of the contraction by oxytocin.

guinea pig = assay: Effect on vascular permeability (Evans blue dye infiltration, skin); type: in vivo, Hartley guinea pig
Protocol: Effect on Vascular Permeability
Three Hartley guinea pigs were employed. (±)-Ritodrine hydrochloride, (+)-ritodrine hydrochloride or (-) -ritodrine hydrochloride were administered intracutaneously at a dose of 10^-2 -10^-5 g/ml into the shaved rear part of the guinea pigs. Immediately after the administration, 1 ml of a 1% Evans blue solution was administered intravenously. After 30 minutes, the animals were slaughtered by exsanguination under anesthetization with excessive amount of pentobarbital sodium. The skin was peeled to observe from the internal side of the skin the extent of dye infiltration at the site where the test material was administered. The area with dye having a size ([longer diameter+shorter diameter]/2) of 5 mm or more was judged positive.

[2] = cited from earlier work
mice = assay: Acute toxicity test in mouse (i.v.); type: in vivo, male ICR mice
Protocol: (§4) Acute Toxicity Test in Mouse
(§5) (±)-Ritodrine hydrochloride, (+)-ritodrine hydrochloride or (-)-ritodrine hydrochloride was administered intravenously at a dose of 40-100 mg/kg to male ICR mice to examine their motality.

[3] = Acute toxicity test in mouse (i.v.); type: in vivo, male ICR mice; details: mouse, in vivo, iv
Protocol: as §4, §5

[4] = tested on: smooth muscle (myometrium and tracheal muscle); assay: Smooth muscle relaxation activity, myometrium and tracheal muscle taken together; parameters: species or system rat, guinea pig; details: from the activities on myometrium and tracheal muscle
Protocol: as §2, §3, §1
After Hartley guinea pigs having body weight of 430-510 g, were anesthesized with ether, tracheae were excised to make chain preparation according to the method of Akcasu (A. Akcasu, Arch. Int. Pharmacodyn., 1959, 122, 201). […] Contractile tension was measured via an isotonic transducer and recorded on a polygraph. […]

[5] = oxytocin 50 mU/kg/min i.v. infusion
[6] = tension, frequency and amplitude of spontaneous movement
[7] = hydrochlorides, cumulative application, Tyrode solution 37°C
[8] = Rattus norvegicus, oxytocin 2×10^-2 U/ml, hydrochlorides applied, Tyrode solution 36°C
[9] = oxytocin-contracted isolated rat myometrium
[10] = acute toxicity, range stated for all three types, read-out: 50% lethal dose (LD50)
[11] = mice, confidence limits given, read-out: LD50 (Confidence limit)

Row | Compound | ED50 (uterus in situ; [5]) [mg/kg] | minimal effective dose (uterus in situ; [6]) [mg/kg] | concentration dependence of suppressing effect (uterus in situ) | relaxation response of tracheal muscle [1] | IC50 [1, 7] [nM] | sequence of intensities of relaxation activity [1] | concentration dependence of relaxation activity (isolated rat myometrium) | IC50 (isolated rat myometrium; [8]) [nM] | minimal effective concentration (isolated rat myometrium; [9]) [µM] | vascular permeability, positive at 0.001% (guinea pig; guinea pig) | vascular permeability, positive at 0.01% (guinea pig; guinea pig) | vascular permeability, positive at 0.1% (guinea pig; guinea pig) | mortality at 50 mg/kg (mice; i.v., dead/total) | mortality at 60 mg/kg (mice; i.v., dead/total) | mortality at 70 mg/kg (mice; i.v., dead/total) | mortality at 80 mg/kg (mice; i.v., dead/total) | mortality at 90 mg/kg (mice; i.v., dead/total) | sequence of safeties in developing the same level of relaxation effect on smooth muscle (mice; mouse, in vivo) | LD50 [3, 10] [mg/kg] | LD50 [3, 11] [mg/kg] | other results
1 | C[C@H](NCCc1ccc(O)cc1)[C@H](O)c1ccc(O)cc1 (relative stereo) [(±)-isomer, (±)-erythro-1-(p-hydroxyphenyl)-2-[2-(p-hydroxyphenyl)ethylamino]-1-propanol] | 0.106 | ≥ 0.05 | increased depending on the concentration | relaxation response depending on concentration | 136 | (-)-isomer>(±)-isomer>>(+)-isomer | increased depending on the concentration | 3530 | 0.1 | 0/3 | 0/3 | 3/3 | 0/5 | 0/5 | 1/5 | 2/5 | 4/5 | (-)-type>(±)-type>>(+)-type | 50 to 100 | 83 | vascular permeability, positive at 1% (guinea pig; guinea pig): 3/3; side effects ([2]; background): increase in heart rate; effectiveness in preventing premature birth / suppressing uterine contraction ([2]; known from Japanese Patent Publications): effective in preventing premature birth owing to its excellent activity for suppressing uterine contraction; mortality at 100 mg/kg (mice; i.v., 100 mg/kg, dead/total): 4/5
2 | C[C@@H](NCCc1ccc(O)cc1)[C@@H](O)c1ccc(O)cc1 [(+)-isomer] | 3.61 | ≥ 1.5 |  | relaxation response depending on concentration | 5610 | (-)-isomer>(±)-isomer>>(+)-isomer |  | 54600 | ≥ 10 | 0/3 | 1/3 | 3/3 | 0/5 | 1/5 | 2/5 | 4/5 | 5/5 | (-)-type>(±)-type>>(+)-type | 50 to 100 | 70 | relaxation intensity relative to (±)-ritodrine, by IC50 on isolated tracheal muscle [1]: about 1/40; intensity of activity relative to (±)-ritodrine, by IC50 on isolated myometrium (isolated rat myometrium): 1/15
3 | C[C@H](NCCc1ccc(O)cc1)[C@H](O)c1ccc(O)cc1.Cl [(-)-isomer, (1R,2S)-2-(4-Hydroxyphenethylamino)-1-(4-hydroxyphenyl)-1-propanol hydrochloride] |  |  | increased depending on the concentration | relaxation response depending on concentration |  | (-)-isomer>(±)-isomer>>(+)-isomer | increased depending on the concentration |  |  |  |  |  | 1/5 | 3/5 | 3/5 | 3/5 | 5/5 |  | 50 to 100 | 64 | ED50 (uterus in situ): 0.059 mg/kg; minimal effective dose (uterus in situ): ≥ 0.05 mg/kg; smooth muscle relaxation activity relative to the (±)-type [4]: 2-3 times; IC50 [1]: 59.7 nM; relaxation intensity relative to (±)-ritodrine, by IC50 on isolated tracheal muscle [1]: about 2.3 times; minimal effective concentration (isolated rat myometrium; Rattus norvegicus): 0.1 µM; IC50 (isolated rat myometrium; Rattus norvegicus): 1350 nM; intensity of activity relative to (±)-ritodrine, by IC50 on isolated myometrium (isolated rat myometrium): about 2.6 times; vascular permeability, positive at 0.001% (guinea pig; intracutaneous, 0.001%, positive = dye area 5 mm or more, positive/total): 0/3; vascular permeability, positive at 0.01% (guinea pig; intracutaneous, 0.01%, positive = dye area 5 mm or more, positive/total): 1/3; vascular permeability, positive at 0.1% (guinea pig; intracutaneous, 0.1%, positive = dye area 5 mm or more, positive/total): 2/3; vascular permeability, positive at 1% (guinea pig; intracutaneous, 1%, positive = dye area 5 mm or more, positive/total): 3/3; mortality at 40 mg/kg (mice; i.v., 40 mg/kg, dead/total): 0/5; sequence of safeties in developing the same level of relaxation effect on smooth muscle (mice; ratio of smooth muscle relaxation to lethal toxicity, decreasing sequence): (-)-type>(±)-type>>(+)-type
